According to PMC9935382, “Sorting nexin-dependent therapeutic targeting of oncogenic epidermal growth factor receptor” (Cancer Gene Therapy, 2022):
Entries after “also recorded” stand apart in the source; their conditions may differ.

Legend:
BT20 cells [1] = assay type: cell-based; conditions: 3 days, MTT
Method: (§1) 2 × 10^3 cells were plated per well in a 96 well plate and left to adhere overnight. The following day, drug treatments were started and continued for 3 days. To measure the viability of the remaining cell population, 10% 3-(4,5-dimethylthiazol-2-yl)-2,5-diphenyltetrazolium (MTT) in media was added and incubated for 2 hours and conversion of MTT to formazan at 540 nm using a biotech Synergy LX plate reader.
(§2) A–G Cells were plated in a 96-well plate at 2000 cells per well. […] Cell viability was then measured with an MTT assay, viability of treated cells were compared with the vehicle control. H MDA-MB-468 cells were plated and incubated+/− IPTG for 2 days prior to drug treatment to induce expression of an EGFR-targeted shRNA.
(§3) Supplementary Figure 1. A. BT20 triple negative breast cancer cells were treated with SNX1.1, 1.2, or 1.3 for 3 days and their viability was measured via MTT analysis. B. CHO cells were treated with PTD4 or SNX1.3 for 3 days and their viability was measured via MTT analysis.

MDA-MB-231 cells = experiment: MTT cell viability, MDA-MB-231; assay type: cell-based; conditions: 3 days
Method: as §1, §2

H1975 cells = experiment: MTT cell viability, H1975; assay type: cell-based; conditions: EGFR driver mutation T790M, 3 days
Method: as §1, §2

CHO cells = experiment: MTT cell viability, CHO; assay type: cell-based, Chinese hamster; conditions: CHO cells lack EGFR expression, 3 days
Method: as §1, §2, §3

[2] = tested on: EGFRkin / SNX1 BAR domain; experiment: Competitive binding assay, SNX BAR / EGFRkin; parameters: species or system human; conditions: 2.5 μM peptide; data not shown
[3] = tested on: nuclear EGFR in MDA-MB-468 cells; experiment: Nuclear EGFR by subcellular fractionation; assay type: cell-based; conditions: serum starved, 20 ng/mL EGF and peptide, 2 h; subcellular fractionation and immunoblot
Method: Cells were trypsinized and washed with PBS, followed by centrifugation at 100 g (4 °C) for 5 minutes. The cell pellet was resuspended in ice-cold cytosolic fraction buffer (150 mM NaCl, 50 mM HEPES pH 7.4, 25 ug/mL digitonin, with Complete protease inhibitors (Roche) and phosphatase inhibitors (2.0 mM sodium orthovanadate, 10.0 μM ammonium molybdate and 10.0 mM sodium fluoride) and tumbled at 4 °C for 10 minutes, followed by centrifuged at 2000 g, 4 °C for 10 minutes and the cytosolic fraction transferred retained for analysis as the cytosolic fraction. The pellet was then washed twice in ice-cold PBS, resuspended in membrane fraction buffer (150 mM NaCl, 50 mM HEPES pH 7.4, 1% NP-40, with protease and phosphatase inhibitors) and incubated on ice for 30 minutes. […]
Lysates were prepared as described, protein concentrations determined by BCA assay (Pierce) and resolved via standard SDS-PAGE [18]. Gels were transferred to either PVDF (Immobilon P or Immobilon FL) membrane and probed with the indicated antibodies and analyzed by either HRP-linked secondaries (Pierce) or IRDye secondaries (Li-Cor), followed by development in Dura Signal (Pierce) or IR (Licor). […]
(§4) Cells were then fractionated and verified by HSP90 cytosolic protein, Bap31 membrane protein, or HDAC nuclear protein. […] After the second week, the number of secondary mammospheres were counted.

BT20 cells [4] = experiment: BT20 mammosphere formation; assay type: cell-based
Method: 20,000 BT20 cells were suspended in mammosphere media (15 mL Mammocult media supplemented with 1.7 mL Proliferation supplement, 1.5 μL hydrocortisone, 30 μL heparin, and 150μL penicillin/streptomycin) and plated onto a low adhesion 6-well plate. After one week the number of spheres per well were counted. Cells from selected wells were then dissociated in trypsin EDTA and plated with fresh mammosphere media to develop secondary mammospheres.
as §4
These spheres were then disassociated and re-plated to form secondary mammospheres.

CC[C@H](C)[C@H](NC(=O)[C@@H](NC(=O)[C@H](Cc1c[nH]cn1)NC(=O)[C@H](CC(N)=O)NC(=O)[C@H](CCCCN)NC(=O)[C@H](C)NC(=O)[C@H](CCCNC(=N)N)NC(=O)[C@H](C)NC(=O)[C@H](CCC(N)=O)NC(=O)[C@H](CCCNC(=N)N)NC(=O)[C@H](C)NC(=O)[C@H](C)NC(=O)[C@H](C)NC(=O)[C@H](CCCNC(=N)N)NC(=O)[C@H](C)NC(=O)[C@H](Cc1ccc(O)cc1)NC(C)=O)C(C)C)C(=O)N[C@@H](CCCCN)C(=O)N[C@@H](Cc1ccc(O)cc1)C(=O)N[C@@H](CC(C)C)C(=O)N[C@@H](CCC(=O)O)C(=O)N[C@H](C(=O)N[C@@H](CC(C)C)C(=O)N[C@@H](CC(C)C)C(=O)N[C@@H](Cc1ccc(O)cc1)C(=O)N[C@@H](CO)C(=O)N[C@@H](CCC(N)=O)C(=O)N[C@@H](CCC(N)=O)C(=O)N[C@@H](CCC(N)=O)C(=O)N[C@@H](CC(C)C)C(=O)N[C@@H](C)C(=O)N[C@@H](CCCCN)C(=O)N[C@@H](Cc1ccc(O)cc1)C(=O)N[C@@H](Cc1c[nH]c2ccccc12)C(=O)N[C@@H](CCC(=O)O)C(=O)N[C@@H](C)C(=O)N[C@@H](Cc1ccccc1)C(=O)N[C@@H](CC(C)C)C(N)=O)[C@@H](C)O [cSNX1.3]
inhibition of cell survival compared with Sapitinib (BT20 cells [1]): more effective than Sapitinib | sensitivity (cell viability) (MDA-MB-231 cells): sensitive | effect on cell viability (H1975 cells): minimal effect | impact on cell viability / growth (CHO cells): almost no impact | inhibition of SNX BAR binding to EGFRkin [2]: blocks SNX BAR binding to EGFRkin | nuclear-localized EGFR [3]: inhibits the nuclear localization of EGFR; also recorded: loss of nuclear-localized EGFR | primary mammosphere formation (BT20 cells [4]; 1 week treatment, low adhesion plate): no mammospheres were formed | secondary mammosphere formation, treated in the first week (BT20 cells [4]; cSNX1.3 in first week, then cPTD4 or vehicle in second week): reduction in sphere formation | secondary mammosphere formation, treated in the second week (BT20 cells [4]; treated during second week): no mammosphere formation
